Measurements from patent US20130281544A1, “HEPATOPROTECTANT ACTIVITY OF GARCINOL” (priority 2010, published 2013).
In brackets after ≈: the same amount, converted by molar mass.

How the values were obtained:
[1] = in vitro; assay type: cell-based; details: human
[2] = tested on: Hep G2 liver cancer cell line; assay: in vitro; assay type: cell-based
[3] = tested on: mice; details: mouse, in vivo, po
From the text: The parameters studied and observations recorded are included in Table 1. (OECD Guidelines for Testing of Chemicals. Guideline 423, Acute Oral Toxicity—Acute Toxic Class Method, Adopted, (1996). Organization for Economic Cooperation and Development).

[4] = tested on: paracetamol induced liver damage in rats; assay: Serum enzymes ALT, AST, ALP in paracetamol (APAP) induced liver damage; assay type: in vivo, Male Wistar Rats; details: for ALP percent change / ALT percent change / AST percent change / ALP / ALT / AST: serum; for ALP / ALT / AST: Mean ± SE
Experimental: Doses of Garcinol (GC) used for the study: 1.25, 2.5, 5, 10 mg/kg p.o.
Standard drug: Silymarin (50 mg/kg) p.o.
Experimental animals orally received paracetamol (400 mg/kg body weight) for seven days. The animals from drug treated group received 400 mg/kg body weight of paracetamol dissolved in water orally along with graded doses of test drug Garcinol for seven days. The standard group animals received 50 mg/kg body weight of standard drug silymarin and 400 mg/kg body weight of paracetamol for seven days and served as standard control. [N. Kanchana and A. Mohamed Sadiq, Hepatoprotective effect of Plumbago zeylanica on paracetamol induced liver toxicity in rats, Int J Pharm Pharm Sci, Vol 3, Issue 1, 151-154 (2011)].
Blood was collected from the retro-orbital plexus of experimental animals and no anti-coagulant was added. Blood was made to stand at room temperature for 1 hour. It was then centrifuged and clear serum was separated. The serum was then stored for analysis. Reference: (Magari et al., 2004).
(ASPARTATE AMINOTRANSFERASE and ALANINE AMINOTRANSFERASE), Reference: Ritman S, Frankel S, (1957). A colorimeteric method for the determination of serum glutamic oxaloacetic and glutamic pyruvic transaminases. American Journal of Clinical Pathology; 28: 56-63.
0.2 ml of serum, collected from test and control samples, was mixed with 1.0 ml of buffer solution and incubated for 60 min at 37° C. in a water bath. After the addition of 1.0 ml of chromogen solution, the samples were kept at room temperature for 20 minutes for the reaction to proceed and 10 ml NaOH was added. The optical density was red at 546 nm after 5 min. To the blank, serum was added after the addition of chromogen solution.
(ALKALINE PHOSPHATASE), Reference: Klaus Walter and Schutt C. (1974). Acid and alkaline phosphatase in serum. In: Methods of Enzymatic Analysis. Eds. Hans Ulrich Bergmeyer, Verlag ChemieWeinheim, Academic press, Inc. New York, 2nd Edition, Vol. 2, pp. 855-64.
Alkaline phosphatase activity measurement is based on the ability of the enzyme to hydrolyze p-nitrophenol phosphate under alkaline conditions. The cleaved product p-nitrophenol is yellow in alkaline solution and is measured at 400-420 nm (Klaus and Schutt, 1974). 2.0 ml of buffered substrate was taken in the tubes ‘Test’ ‘Control’ and ‘Blank’ followed by addition of serum and distilled water (0.1 ml) in ‘Test’ and ‘Blank’ respectively and incubated in a water bath for 30 minutes at 25° C. After incubation sodium hydroxide was added (0.25 N, 2 ml) to all the tubes, which was followed by serum (0.1 ml) to the tubes marked ‘Control’. The yellow colour formed was measured spectrophotometrically against blank at 410 nm. […]

For `C=C(C)[C@@H](CC=C(C)C)C[C@@]12C[C@@H](CC=C(C)C)C(C)(C)[C@@](CC=C(C)C)(C(=O)C(C(=O)c3ccc(O)c(O)c3)=C1O)C2=O` [Garcinol], the cytotoxicity at 0.78 μg/ml [1] was -3.81%, the cytotoxicity at 1.56 μg/ml [1] was -12.1% and the cytotoxicity at 3.13 μg/ml [1] was -14.7%. It also gave a cytotoxicity at 6.25 μg/ml [1] of -1.94%, a cytotoxicity at 12.5 μg/ml [1] of 35.8% and a cytotoxicity at 25 μg/ml [1] of 60.9%. It also gave a cytotoxicity at 50 μg/ml [1] of 83.2%, a cytotoxicity at 100 μg/ml [1] of 83.4% and a cytotoxicity at 200 μg/ml [1] of 79.5%. The “effective concentration for mammalian hepatocyte protection” value [2] was 0.78 to 6.25 µg/mL, the IC50 ([2]; Homo sapiens, HepG2, HEP G2 cells, MTT, read-out: Hepatoprotective activity in HEP G2 cells IC50) was 13.3 µg/mL (≈ 22.1 µM) and the Aggressiveness [3] was “Aggressiveness: Nil”. The Atexia [3] was “Atexia: Nil”, the Blanching [3] was “Blanching: Nil” and the Clonic convulsions [3] was “Clonic convulsions: Nil”. The Corneal [3] was “Corneal: No Effect”, the Cyanosis [3] was “Cyanosis: Nil” and the Diarrhea [3] was “Diarrhea: Nil”. The Excitation [3] was “Excitation: Nil”, the Fearful [3] was “Fearful: Nil” and the “Fecal Output” value [3] was “Fecal Output: Normal”. For the same molecule, the “General Locomotor Activity” value [3] was “General Locomotor Activity: Normal”, the “General Movement” value [3] was “General Movement: Normal” and the Hyperemia [3] was “Hyperemia: Nil”. For the same molecule, the “Motor Activity” value [3] was “Motor Activity: Normal”, the “Muscular Weakness” value [3] was “Muscular Weakness: Nil” and the Passive [3] was “Passive: Nil”. For the same molecule, the Pilo erection [3] was “Pilo erection: Nil”, the Pinnal [3] was “Pinnal: No Effect” and the “Respiration Depth” value [3] was “Respiration Depth: Normal”. For the same molecule, the “Respiration Rate” value [3] was “Respiration Rate: Normal”, the Respiration rate [3] was “Respiration rate: Normal” and the Salivation [3] was “Salivation: Normal”. The Tremors [3] was “Tremors: Nil”, the “Urine Output” value [3] was “Urine Output: Normal” and the “Average Protection” value ([4]; 1.25 mg/kg p.o.) was 13.06%. The “Average Protection” value ([4]; 2.50 mg/kg p.o.) was 21.51%, the “Average Protection” value ([4]; 5.00 mg/kg p.o.) was 36.31% and the “Average Protection” value ([4]; 10.00 mg/kg p.o.) was 33.22%. For the same molecule, the ALP percent change ([4]; 1.25 mg/kg p.o.) was “(8.21) %”, the ALT percent change ([4]; 1.25 mg/kg p.o.) was “(21.69) %” and the AST percent change ([4]; 1.25 mg/kg p.o.) was “(9.30) %”. It also gave an ALP ([4]; 1.25 mg/kg p.o.) of 37.21 ± 3.44 μmol min/lt, an ALT ([4]; 1.25 mg/kg p.o.) of 862.97 ± 53.38 μmol min/lt and an AST ([4]; 1.25 mg/kg p.o.) of 761.61 ± 43.96 μmol min/lt. For the same molecule, the ALP percent change ([4]; 2.50 mg/kg p.o.) was “(15.44) %”, the ALT percent change ([4]; 2.50 mg/kg p.o.) was “(26.62) %” and the AST percent change ([4]; 2.50 mg/kg p.o.) was “(22.49) %”. The ALP ([4]; 2.50 mg/kg p.o.) was 34.28 ± 1.98 μmol min/lt, the ALT ([4]; 2.50 mg/kg p.o.) was 808.64 ± 38.55 μmol min/lt and the AST ([4]; 2.50 mg/kg p.o.) was 650.88 ± 35.84 μmol min/lt. For the same molecule, the ALP percent change ([4]; 5.00 mg/kg p.o.) was “(24.17) %”, the ALT percent change ([4]; 5.00 mg/kg p.o.) was “(39.96) %” and the AST percent change ([4]; 5.00 mg/kg p.o.) was “(44.81) %”. It also gave an ALP ([4]; 5.00 mg/kg p.o.) of 30.74 ± 2.05 μmol min/lt, an ALT ([4]; 5.00 mg/kg p.o.) of 661.67 ± 51.40 μmol min/lt and an AST ([4]; 5.00 mg/kg p.o.) of 463.41 ± 38.56 μmol min/lt. The ALP percent change ([4]; 10.00 mg/kg p.o.) was “(17.11) %”, the ALT percent change ([4]; 10.00 mg/kg p.o.) was “(46.44) %” and the AST percent change ([4]; 10.00 mg/kg p.o.) was “(36.12) %”. The ALP ([4]; 10.00 mg/kg p.o.) was 33.60 ± 1.93 μmol min/lt, the ALT ([4]; 10.00 mg/kg p.o.) was 590.22 ± 50.98 μmol min/lt and the AST ([4]; 10.00 mg/kg p.o.) was 536.39 ± 44.13 μmol min/lt.
